Data from patent US20120264928A1, “THERAPEUTIC PHARMACEUTICAL AGENT FOR DISEASES ASSOCIATED WITH DECREASE IN FUNCTION OF GNE PROTEIN, FOOD COMPOSITION, AND FOOD ADDITIVE” (JAPAN HEALTH SCIENCES FOUNDATION, priority 2009, published 2012).

Tests used:
[1] = test system: primary cultured cells of myotubes; experiment: Cytotoxicity of reagent in myotube culture; format: cell-based; settings: high concentration
[2] = test system: DMRV model mice; experiment: Amount of NeuAc in muscle tissue of treated DMRV model mice; format: in vivo; settings: vs placebo group
Protocol: DMRV model mice were GNE^(−/−)hGNED176V-Tg described in Japanese Unexamined Patent Application Publication No. 2007-312641. Healthy litters having no GNE gene mutation were used as controls. The mice in the present example freely take water and feed and ingest 14 mg/kg body weight/day of N-acetylneuraminic acid compound on average.
In the case that the sample was cultured cells, the cells were washed with PBS three times, and 400 p. 1 of 50 mM sulfuric acid was added to the cells. The cells were incubated at 80° C. for 60 minutes and were hydrolyzed to release NeuAc and NeuGc. In the case that the sample was a piece of tissue, the tissue was frozen, was pulverized with an air hammer, and was homogenized in a KCl-tris solution. The precipitate was again washed with the KCl-tris solution and was hydrolyzed in 50 mM sulfuric acid at 80° C. for one hour to release NeuAc and NeuGc. 400 μl of 7 mmol 1,2-diamino-4,5-methylenedioxybenzene, dihydrochloride (MDB, Dojindo Laboratories) solution (15.8 mg MDB, 48.8 mg Na2S2O4, and 735 μl 2-mercaptoethanol were dissolved in distilled water so as to prepare a 10-ml solution) was added to the sample containing free NeuAc and NeuGc and was allowed to react at 60° C. for 2.5 hours. The fluorescent derivative thus prepared was analyzed with HPLC (JASCO Corp.) using 0.05 to 5 nmol/μl Neu5Ac and Neu5Gc standards. The amount of protein from the tissue was measured with a Bio-Rad Protein Assay kit (Bio-Rad Laboratories).
20 mg/kg body weight/day of ManNAc (N=6), NeuAc (N=5), or sialyllactose (N=7) dissolved in drinking water was administered to the DMRV model mice between 11- to 15-week old and 56- to 58-week old for 43 to 45 weeks. 40 mg (N=5) or 400 mg/kg body weight/day (N=4) of Ac4ManNAc dissolved in drinking water was administered to the DMRV model mice of the same ages for 43 to 47 weeks. Drinking water free of the pharmaceutical agents was supplied to mice in a placebo group.
During the administration of the pharmaceutical agent, the measurement of the body weight, the determination of the survival rate, blood collection (0, 25, and 49 days after the start of administration, and thereafter at intervals of 28 days), and a hanging test (0 and 49 days after the start of administration, and thereafter at intervals of 56 days) were performed at regular intervals. Survivors after the administration (ManNAc-treated group: N=5, NeuAc-treated group: N=5, sialyllactose group: N=6) were subjected to a treadmill test. A muscle tissue was then excised and was subjected to a muscle contraction test, the measurement of the amount of NeuAc, and pathological observation.

[3] = test system: primary cultured cells of myotubes derived from the DMRV model mice; experiment: Amount of NeuAc by HPLC in myotubes from DMRV model mice; format: cell-based; settings: 10 mM ManNAc, three days; compared with control group (10 mM Glc)
Protocol: The skeletal muscle tissues collected from the DMRV human patients or the model mice were lightly washed with PBS or Hank's balanced saline and were treated with 0.25% trypsin for 5 minutes. The tissues were finely cut into several millimeters with ophthalmic scissors, were digested with 0.4% collagenase II/0.25% trypsin at 37° C. for 30 minutes, and were left still to collect supernatant. The precipitate was again treated with the enzyme liquid. After being left still, the precipitate was well suspended in a DMEM-Ham's F-12 culture medium. The tissue suspension was passed through a nylon mesh to remove the tissues. The washings and the supernatant were centrifuged to collect cells. […]
In the case that the sample was cultured cells, the cells were washed with PBS three times, and 400 p. […] The fluorescent derivative thus prepared was analyzed with HPLC (JASCO Corp.) using 0.05 to 5 nmol/μl Neu5Ac and Neu5Gc standards. The amount of protein from the tissue was measured with a Bio-Rad Protein Assay kit (Bio-Rad Laboratories).
ManNAc or Ac5GlcNAcol was added to the culture media of primary cultured cells of myotubes derived from the DMRV model mice such that the final concentration of ManNAc was 10 mM and the final concentration of Ac5GlcNAcol was […]. […] The amount of NeuAc in the cultured cells was measured by the HPLC method described above (N=3).

[4] = in vivo; cited from earlier work
[5] = test system: cells of animals having GNE gene mutation and normal animals; settings: cited from earlier work
[6] = administration of free N-acetylneuraminic acid; cited from earlier work
[7] = 20 mg/kg body weight/day in drinking water

In the case of CC(=O)N[C@@H]1C(OC(C)=O)O[C@H](COC(C)=O)[C@@H](OC(C)=O)[C@@H]1OC(C)=O (stereo partly drawn) [Ac4ManNAc, Tetra-O-acetyl-N-acetylmannosamine], the cytotoxicity [1] was “has cytotoxicity when the Ac4ManNAc concentration is high” and the “amount of NeuAc in the muscle tissue” value ([2]; 400 mg/kg) was “significantly higher”.
In the case of CC(=O)N[C@@H]1C(O)O[C@H](CO)[C@@H](O)[C@@H]1O (stereo partly drawn) [ManNAc, N-acetylmannosamine, reference compound], the “amount of NeuAc in the myotubes” value [3] was “increased the amount of NeuAc” and the “amount of NeuAc in the muscle tissue” value [2, 7] was “significantly higher”.
For CC(=O)N[C@H]1[C@H]([C@H](O)[C@H](O)CO)OC(O)(C(=O)O)C[C@@H]1O (stereo partly drawn) [NeuAc, N-acetylneuraminic acid], the “half-life in the blood of animals” value [4] is listed as “very short”, the incorporation into cells [5] is listed as “difficult to incorporate into cells” and the “effect of increasing N-acetylneuraminic acid in ganglioside” value [6] is listed as “no particular effect”. The “amount of NeuAc in the muscle tissue” value [2, 7] was “significantly higher”.
In the case of CC(=O)N[C@H]1[C@H]([C@H](O)[C@H](O)CO)O[C@@](O[C@H]2[C@@H](O)[C@@H](CO)O[C@@H](O[C@H]3[C@H](O)[C@@H](O)C(O)O[C@@H]3CO)[C@@H]2O)(C(=O)O)C[C@@H]1O (stereo partly drawn) [sialyllactose, NeuAcα2-3Galβ1-4Glc], the “amount of NeuAc in the muscle tissue” value [2, 7] was “significantly higher”.
